Source: BindingDB's records for doi:10.1016/j.bmcl.2020.127533 (Glaxosmithkline, 2020)

Molecular target: Methionine aminopeptidase 2 (Homo sapiens) (UniProt P50579)
Experiment: Inhibition of MetAP2 (unknown origin)

Methionine aminopeptidase 2 (Homo sapiens), sequence (P50579 whole entry, looked up): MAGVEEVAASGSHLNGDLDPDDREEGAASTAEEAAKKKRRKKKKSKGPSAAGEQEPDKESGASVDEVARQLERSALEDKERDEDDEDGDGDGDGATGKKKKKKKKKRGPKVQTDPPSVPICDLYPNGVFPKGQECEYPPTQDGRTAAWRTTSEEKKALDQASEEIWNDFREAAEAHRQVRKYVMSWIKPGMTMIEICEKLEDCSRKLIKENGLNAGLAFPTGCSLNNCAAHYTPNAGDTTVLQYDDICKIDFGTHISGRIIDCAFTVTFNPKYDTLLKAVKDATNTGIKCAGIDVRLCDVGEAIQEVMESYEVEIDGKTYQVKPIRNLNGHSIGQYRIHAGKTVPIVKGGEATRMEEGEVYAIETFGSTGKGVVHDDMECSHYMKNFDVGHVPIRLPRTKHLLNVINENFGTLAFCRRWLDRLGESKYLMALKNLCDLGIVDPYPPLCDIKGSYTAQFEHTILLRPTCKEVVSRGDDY

SMILES | IC50
CC(=O)c1[nH]c2ccc(Cl)cc2c1-c1ccccc1 | 1580 nM
CC(C)Oc1ccccc1-c1c(C(N)=O)[nH]c2cc(F)c(Cl)cc12 | 5 nM
CN1CCN(c2ccc(-c3c(C(N)=O)[nH]c4ccc(Cl)cc34)cc2)CC1 | 25 nM
COc1ccccc1-c1c(C(N)=O)[nH]c2cc(F)c(Cl)cc12 | 6.3 nM
NC(=O)c1[nH]c2ccc(Cl)cc2c1-c1ccc(Cl)cc1 | 398 nM
NC(=O)c1[nH]c2ccc(Cl)cc2c1-c1ccccc1OC(F)(F)F | 398 nM
NC(=O)c1[nH]c2ccc(F)cc2c1-c1ccccc1 | 631 nM
NC(=O)c1[nH]c2ccc(Cl)cc2c1-c1ccccc1 | 316 nM
CN(C)c1ccc(-c2c(C(N)=O)[nH]c3ccc(Cl)cc23)cc1 | 100 nM
N#Cc1ccc(-c2c(C(N)=O)[nH]c3ccc(Cl)cc23)cc1 | 501 nM
NC(=O)c1[nH]c2ccc(Cl)c(F)c2c1-c1ccccc1 | 3980 nM
NC(=O)c1[nH]c2ccc(Cl)cc2c1-c1ccc(C(=O)N2CCCC2)cc1 | 251 nM
COc1ccccc1-c1c(C(N)=O)[nH]c2ccc(Cl)cc12 | 100 nM
NC(=O)c1[nH]c2cnccc2c1-c1ccccc1 | 6310 nM
CC(C)Oc1cc(N2CCNCC2)ccc1-c1c(C(N)=O)[nH]c2cc(F)c(Cl)cc12 | 3.2 nM
NC(=O)c1[nH]c2ccc(Cl)cc2c1-c1ccc(-c2ccn[nH]2)cc1 | 251 nM
NC(=O)c1[nH]c2ccc(Cl)cc2c1-c1ccc(N2CCOCC2)cc1 | 50 nM
NC(=O)c1[nH]c2ncc(Cl)cc2c1-c1ccccc1 | 1260 nM
NC(=O)c1[nH]c2ccccc2c1-c1ccccc1 | 2510 nM
NC(=O)c1[nH]c2c(Cl)cccc2c1-c1ccccc1 | 7940 nM
NC(=O)c1[nH]c2cc(F)c(Cl)cc2c1-c1ccccc1 | 63 nM
CC(C)Oc1cc(N2CCNCC2)ccc1-c1c(C(N)=O)[nH]c2cc(F)c(F)cc12 | 2 nM
Cc1ccccc1-c1c(C(N)=O)[nH]c2ccc(Cl)cc12 | 316 nM
NC(=O)c1[nH]c2c(F)cc(Cl)cc2c1-c1ccccc1 | 631 nM
O=C(O)c1[nH]c2ccc(Cl)cc2c1-c1ccccc1 | 20000 nM
CC(C)Oc1ccccc1-c1c(C(N)=O)[nH]c2ccc(Cl)cc12 | 25 nM
COc1ccc(-c2c(C(N)=O)[nH]c3ccc(Cl)cc23)cc1 | 126 nM
CN(C)Cc1ccc(-c2c(C(N)=O)[nH]c3ccc(Cl)cc23)cc1 | 1000 nM
